Common to all, as to type: cell-based
The test system of experiment [1] is GENEA019 human embryonic stem cells. Nature of the experiment: Myogenic induction with Wnt pathway modulators, Hoechst and Pax3 staining. As to conditions: modulator 1 μM in medium with Y-27632 10 μM and Alk5 inhibitor 2 μM; 9 days. Here is the method: GENEA019 human embryonic stem cells were plated in Skeletal Muscle Cell Basal Medium (Lonza) with Skeletal Muscle Cell Growth Supplement (Lonza) and horse serum (5%) supplemented with Y-27632 (10 μM) and Alk5 inhibitor (2 μM), and a series of Wnt pathway modulators, including CHIR99021 (1 μM), AZD1080 (1 μM), IWP-L6 (1 μM), D4476 (1 μM), and AT13148 (1 μM). After 9 days in culture, cells were fixed and stained for DNA (Hoechst) and Pax3.

In experiment [2] the test system is GENEA015 and GENEA019 human embryonic stem cells. Nature of the experiment: Kinase inhibitor dose range in myogenic induction, Hoechst and Pax7 staining. As to conditions: dose range from 10 nM to 1 μM; 4 days; medium with Y-27632, CHIR99021, Alk5 inhibitor. Here is the method:
In addition to LRRK2-IN-1, various other kinase inhibitors were tested in a dose range from 10 nM to 1 μM. Cells were fixed after 4 days and stained for DNA (Hoechst) and Pax7.

In experiment [3] the test system is GENEA019 human embryonic stem cells. In words: Myogenic induction with or without LRRK2-IN-1, Hoechst and Pax3 staining. The conditions noted are these: LRRK2-IN-1 1 μM added to medium with Y-27632, CHIR99021, Alk5 inhibitor; 9 days. From the text:
(§1) After 9 days, cells were fixed and stained for DNA (Hoechst) and Pax3.

Experiment [4] concerns GENEA019 and GENEA067 human embryonic stem cell lines. Nature of the experiment: Myogenic induction with or without LRRK2-IN-1, phase contrast microscopy. As to conditions: LRRK2-IN-1 1 μM, suppresses flat contaminating cells with large cytoplasms.
Excerpt: as §1
The same experiment was repeated using GENEA019 and GENEA067 human embryonic stem cell lines. Cell populations were observed by phase contrast microscopy.

In experiment [5] the test system is GENEA002, GENEA015, and GENEA019 human embryonic stem cell lines. Nature of the experiment: Myogenic induction in MCDB media with optional THI, FGF2 or LRRK2-IN-1, Hoechst, Pax3 and Pax7 staining. As to conditions: 4 days; for cell proliferation (FIGS. 15A-F) / yield of Pax3/7-positive cells (FIGS. 15A-F): 5 μm THI or 5 ng/L FGF2 added to MCDB media, collagen I. Here is the method:
GENEA002, GENEA015, and GENEA019 human embryonic stem cell lines were plated on collagen I-coated culture dishes in the following culture media:
4) MCDB FA ITS: same as MCDB FA with insulin/transferrin/selenium (ITS, 100×)
A control compound, 5 μm THI (2-acetyl-4(5)-(1,2,3,4-tetrahydroxybutyl)imidazole), or […] FGF2 was optionally added to the media. The LRRK2 inhibitor, LRRK2-IN-1 (1 μM), was optionally added to MCDB MinFA medium. Cells were fixed after 4 days and stained for DNA (Hoechst), Pax3 and Pax7.

The test system of experiment [6] is GENEA019 and GENEA067 human embryonic stem cells. In words: Differentiation with continuous ROCK inhibition or with ROCK inhibitor removed after attachment. As to conditions: Y-27632 (10 μM) removed one day after plating, compared with continuous presence. Here is the method:
Cells were either differentiated further in the same medium with media changes every other day, or one day after plating and after cells had attached, cells were changed to and maintained in the same culture medium but without the ROCK inhibitor, Y-27632 (10 μM).

The subject of experiment [7] is GENEA019 human embryonic cells. In words: Myogenic induction on extracellular matrix molecules (collagen I, laminins), Hoechst and Pax7 staining. As to conditions: plate coating; medium with Y-27632 10 μM, CHIR99021 3 μM, Alk5 inhibitor 2 μM; 9 days. From the text:
After 9 days, cells were fixed and stained for DNA (Hoechst) and Pax7.

In the case of `N#Cc1ccc2[nH]c(O)c(-c3ccc(CN4CCOCC4)cn3)c2c1` [AZD1080], the “myogenic induction / Pax3-positive cells (FIGS. 17A and 17B)” value (“myogenic induction / Pax3-positive cells” below) in experiment [1] is “promoted myogenic induction and resulted in Pax3-positive cells”.
Take `Cc1c[nH]c(-c2cnc(NCCNc3ccc(C#N)cn3)nc2-c2ccc(Cl)cc2Cl)n1` [CHIR99021]: the “myogenic induction / Pax3-positive cells” value in experiment [1] is “promoted myogenic induction and resulted in Pax3-positive cells”.
As for `O=C(CSc1nc2c(c(=O)n1-c1ccccc1)SCC2)Nc1ccc(-c2ccccc2)cn1` [IWP-L6], in experiment [1], the “myogenic induction / Pax3-positive cells” value was “blocked myogenic induction”.
With `COc1cc(C(=O)N2CCC(N3CCN(C)CC3)CC2)ccc1Nc1ncc2c(n1)N(C)c1ccccc1C(=O)N2C` [LRRK2-IN-1], the “formation of Pax7-positive cells (FIGS. 16A and 16B)” value in experiment [2] was “strongly promoted the formation of Pax7-positive cells in a dose-dependent manner”. Moreover, in experiment [3], the “cell proliferation (FIG. 13A)” value is given as “promoted cell proliferation” and the “expression of Pax3 (FIG. 13B)” value is on record as “increased expression of Pax3”. The “purity of cell populations (FIG. 14)” value in experiment [4] is on record as “purer cell populations”. Moreover, the “proportion of Pax3-positive and Pax7-positive cells (FIGS. 15A-F)” value in experiment [5] (LRRK2-IN-1 1 μM added to MCDB MinFA medium) is “strong increase”.
With `CC(=O)c1ncc(C(O)C(O)C(O)CO)[nH]1` (stereo not shown) [THI, 2-acetyl-4(5)-(1,2,3,4-tetrahydroxybutyl)imidazole], in experiment [5], the “cell proliferation (FIGS. 15A-F)” value is “neither THI nor FGF2 enhanced” and the “yield of Pax3/7-positive cells (FIGS. 15A-F)” value is listed as “neither THI nor FGF2 enhanced”.
For `C[C@@H](N)[C@H]1CC[C@H](C(=O)Nc2ccncc2)CC1` [Y-27632], in experiment [6], the “cell growth without continuous ROCK inhibition (FIG. 18)” value is reported as “significantly growth retarded” and the “cell population homogeneity during differentiation without continuous ROCK inhibition” value is reported as “highly heterogeneous cell populations”.
With “FGF2: fibroblast growth factor family member”, in experiment [5], the “cell proliferation (FIGS. 15A-F)” value is on record as “neither THI nor FGF2 enhanced” and the “yield of Pax3/7-positive cells (FIGS. 15A-F)” value was “neither THI nor FGF2 enhanced”.
In the case of “laminin 521: extracellular matrix molecule coating tissue culture plates”, in experiment [7], the “Pax7-positive satellite-like cell sub population (FIG. 12A)” value is “favor a satellite-like cell sub population that is Pax7-positive” and the “cell proliferation (FIG. 12B)” value is recorded as “promote cell proliferation”.
